Like-named read-outs stand apart in the source and are kept apart here.
Tests used:
[1] = target: T1, human cloned 5-HT1A receptors (Homo sapiens, UniProt P08908); experiment: [35S]GTPγS binding, functional activity; type: biochemical; parameters: key: neutral antagonists (NA); inverse agonists (IA); settings: HeLa membranes with human 5-HT1A
T1 construct: expressed in transfected cells; host or cells: HeLa (human), stably transfected; membranes
T1 sequence (P08908 1-422): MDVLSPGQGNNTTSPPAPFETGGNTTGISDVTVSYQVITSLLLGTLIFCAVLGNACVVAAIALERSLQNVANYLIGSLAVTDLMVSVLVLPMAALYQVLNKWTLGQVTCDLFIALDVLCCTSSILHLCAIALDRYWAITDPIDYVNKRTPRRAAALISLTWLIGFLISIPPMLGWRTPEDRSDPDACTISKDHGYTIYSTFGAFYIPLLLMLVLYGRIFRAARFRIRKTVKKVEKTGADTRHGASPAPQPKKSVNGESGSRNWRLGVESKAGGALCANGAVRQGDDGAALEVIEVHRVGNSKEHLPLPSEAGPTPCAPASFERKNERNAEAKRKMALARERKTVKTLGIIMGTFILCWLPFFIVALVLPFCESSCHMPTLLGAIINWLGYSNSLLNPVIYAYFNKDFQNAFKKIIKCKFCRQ
Description: On the date of the experiment, cell membranes from HeLa cells transfected with human cloned 5-HT1A receptors were resuspended in buffer pH 7.4 containing 20 mM HEPES, 3 mM MgCl2 and 120 mM NaCl (Stanton, J. A.; Beer, M. S. Eur. J. Pharmacol. 320, 267-275, 1997). The membranes were incubated with 10 μM GDP and decreasing concentrations of test drugs (from 100 μM to 0.1 nM) or decreasing concentrations of 5-HT (from 100 μM to 0.1 nM, reference curve) for 20 min at 30° C. in a final volume of about 0.25 ml. [^35S]GTPγS (200-250 pM in 10 μl) was added to samples and incubated for a further 30 min at 30° C. Non-specific binding was determined in the presence of 10 μM GTPγS. The incubation was stopped by addition of ice-cold HEPES buffer and rapid filtration on Unifilter GF/C filters, using a Filtermate cell harvester (Packard). The filters were washed four times with total 1.2 ml of same buffer. Radioactivity was counted by liquid scintillation spectrometry with efficiency >90% (TopCount Packard). Stimulation of [^35S]GTPγS binding induced by the compounds tested was expressed as % increase in binding above basal value, being the maximal stimulation observed with 5-HT taken as 100%. The concentration-response curve of the agonistic activity was analyzed by non linear fitting program (De Lean et al., Am. J. Physiol. 235, E97-E102, 1978).
A stimulation of [^35S]GTPγS binding represented the functional correlate of the binding of an agonist compound at the 5-HT1A receptors. Stimulation induced by the endogenous ligand 5-HT was considered the maximal stimulation attainable. Compounds stimulating [^35S]GTPγS binding at a lower level were considered as partial agonists. […] Compounds that reduced [^35S]GTPγS binding were considered as inverse agonists.

[2] = target: T2, human 5HT1A-serotonergic receptor (Homo sapiens, UniProt P08908); experiment: Radioligand binding to recombinant 5-HT1A receptor ([3H]8-OH-DPAT, HeLa cell membranes); settings: 1 nM [3H]8-OH-DPAT; Ki from IC50 by the Cheng equation; read-out: Ki (nM), binding affinity for 5HT1A receptor
T2 construct: expressed in transfected cells; host or cells: HeLa (human), stably transfected; membranes
T2 sequence (P08908 1-422): T1 sequence (P08908 1-422)
Description: Genomic clone G-21 encoding the human 5HT1A-serotonergic receptor was stably transfected in a human cell line (HeLa). HeLa cells were grown as monolayers in Dulbecco's modified Eagle medium (DMEM), containing 10% fetal bovine serum and gentamycin (100 μg/ml) at 37° C. in a humidified atmosphere of 5% CO2 and air. The cells were detached from the growth flask at 95% confluence by a cell scraper and were lysed in cold 5 mM Tris and 5 mM EDTA buffer (pH 7.4). The homogenates were centrifuged at 40000×g×20 minutes and the pellets were resuspended in a small volume of cold 5 mM Tris and 5 mM EDTA buffer (pH 7.4) and immediately frozen and stored at −70° C. until use. On the day of experiment, the cell membranes were resuspended in incubation buffer: 50 mM Tris (pH 7.4), 2.5 mM MgCl2, 10 μM pargyline (Fargin et al., Nature 335, 358-360, 1988). The membranes were incubated in a final volume of 0.32 ml for 30 minutes at 30° C. with 1 nM [^3H]8-OH-DPAT, in the absence or presence of the test compounds. Non-specific binding was determined in the presence of 10 μM 5-HT. Incubation was stopped by addition of cold Tris buffer and rapid filtration through UniFilter GF/C plate.
The affinity of the tested compounds was evaluated as inhibition of specific binding of the radioligand to 5-HT1A receptor (IC50) by using the non-linear curve-fitting program Allfit (De Lean et al., Am. J. Physiol. 235, E97-E102 (1978)). The IC50 value was converted to an affinity constant (Ki) by the equation of Cheng et al., Biochem. Pharmacol. 22, 3099-3108 (1973).

5-HT1A receptors = target: T3, 5-HT1A receptors (Rattus norvegicus, UniProt P19327); experiment: Inhibition of serotonergic syndrome (forepaw treading) induced by 8-OH-DPAT in rats (post-synaptic antagonism); type: in vivo; settings: rat, 10 mg/kg p.o.
T3 construct: from tissue; host or cells: living male Sprague-Dawley rats (whole animal, behavioural read-out)
T3 sequence (P19327 1-422): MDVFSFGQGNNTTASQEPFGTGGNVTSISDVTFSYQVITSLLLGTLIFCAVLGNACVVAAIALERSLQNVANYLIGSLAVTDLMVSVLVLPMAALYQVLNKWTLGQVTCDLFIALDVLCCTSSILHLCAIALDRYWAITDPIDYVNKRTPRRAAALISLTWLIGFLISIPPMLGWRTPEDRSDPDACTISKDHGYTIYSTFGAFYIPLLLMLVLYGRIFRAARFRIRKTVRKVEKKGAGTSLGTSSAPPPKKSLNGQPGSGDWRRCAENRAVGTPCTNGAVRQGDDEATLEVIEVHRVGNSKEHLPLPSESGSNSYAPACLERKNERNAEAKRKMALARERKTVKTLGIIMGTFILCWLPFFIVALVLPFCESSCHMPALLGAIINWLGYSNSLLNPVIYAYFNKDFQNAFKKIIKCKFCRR
Description: The inhibitory effect of 5-HT1A-receptor antagonists on stereotyped forepaw treading induced in rats by subcutaneous injection of 8-OH-DPAT was evaluated by the method of Tricklebank (Tricklebank et al., Eur. J. Pharmacol., 117: 15, 1985) with minor modifications as described below.
Male Sprague-Dawley rats [Crl: CD® (SD) IGS BR] weighing 150-175 g from Charles River Italia were used. The animals were housed with free access to food and water and maintained on a forced 12-hour-light/12-hour-dark cycle at 22-24° C. of temperature. On the day of the experiment, the rats were placed singly in clear plastic containers, 10-15 minutes before oral administration of the vehicle or compounds to be tested. For evaluation of antagonistic activity, the compounds were administered 1 and 4 hours before induction of stereotypy by 8-OH-DPAT (1 mg/kg subcutaneously). Observation sessions lasted 30 seconds and began 3 minutes after 8-OH-DPAT treatment and were repeated every 3 minutes over a period of 15 minutes.
The appearance of the symptoms induced by postsynaptic stimulation of 5-HT1A receptors was noted, and the intensity was scored using an intensity scale in which: 0=absent, 1=equivocal, 2=present and 3=intense. Behavioural scores for treated rats were accumulated throughout the observation time (5 observation periods) and expressed as mean values of 4 rats/dose. Change in mean values of treated animals in comparison with control (vehicle) group, expressed as per-cent inhibition, was used to quantify the antagonistic activity.
In order to quantitate the potency of the compound of Example 24 in inhibiting the stereotypy (forepaw treading) induced by 8-OH-DPAT, an ED50 value (dose inhibiting by 50% the forepaw treading) was evaluated by means of linear regression using the least square method.

[3] = 1 h before 8-OH-DPAT 1 mg/kg s.c., read-out: % Inhibition of forepaw treading, 1 h
[4] = 4 h before 8-OH-DPAT 1 mg/kg s.c., read-out: % Inhibition of forepaw treading, 4 h

| SMILES | Functional Activity [1] | Ki [2] [nM] | inhibition at 10 mg/kg (5-HT1A receptors; [3]) [%] | inhibition at 10 mg/kg (5-HT1A receptors; [4]) [%] |
| --- | --- | --- | --- | --- |
| COc1ccccc1N1CCN(CC[C@@H](c2ccccc2F)[C@H](NC(C)=O)C2CCCCC2)CC1 (racemic) [Example 7, N-{(RS,SR)-1-Cyclohexyl-2-(2-fluorophenyl)-4-[4-(2-methoxyphenyl)-piperazin-1-yl]butyl}acetamide] | IA | 1.69 | 87 | 86 |
| CC(=O)N(C)C(C1CCCCC1)C(CCN1CCN(c2cccc3c2OCCO3)CC1)c1ccccc1F (centres unmarked) [Example 41, N-[1-Cyclohexyl-4-[4-(2,3-dihydrobenzo[1,4]dioxin-5-yl)piperazin-1-yl]-2-(2-fluoro-phenyl)butyl]-N-methylacetamide] | IA | 0.9 | – | – |
| COc1ccccc1N1CCN(CCC(c2ccccc2F)C(NCc2ccccc2)C2CCCCC2)CC1 (stereo not drawn) [Example 13, (RS,SR)- and (RS,RS)-N-Benzyl-{1-cyclohexyl-2-(2-fluorophenyl)-4-[4-(2-methoxyphenyl)piperazin-1-yl]butyl}amine] | IA | 0.3 | – | – |
| COc1ccccc1N1CCN(CC[C@@H](c2ccccc2F)[C@@H](C2CCCCC2)N(C(C)=O)C(C)=O)CC1 (racemic) [Example 8, N-Acetyl-N-{(RS,SR)-1-cyclohexyl-2-(2-fluorophenyl)-4-[4-(2-methoxyphenyl)piperazin-1-yl]butyl}acetamide] | IA | 0.68 | – | – |
| COc1ccccc1N1CCN(CC[C@@H](c2ccccc2F)[C@@H](C2CCCCC2)N(C)C(=S)N(C)C)CC1 (racemic) [Example 53, 1-{(RS,SR)-1-Cyclohexyl-2-(2-fluorophenyl)-4-[4-(2-methoxyphenyl)piperazin-1-yl]butyl}-1,3,3-trimethylthiourea] | IA | 1.7 | – | – |
| COC(=O)N[C@H](C1CCCCC1)[C@@H](CCN1CCN(c2ccccc2OC)CC1)c1ccccc1F (racemic) [Example 17, (RS,SR)-{1-Cyclohexyl-2-(2-fluorophenyl)-4-[4-(2-methoxyphenyl)-piperazin-1-yl]butyl}carbamic acid methyl ester] | IA | 0.68 | 75 | 92 |

Continued, values first:

| Functional Activity [1] | Ki [2] [nM] | inhibition at 10 mg/kg (5-HT1A receptors; [3]) [%] | inhibition at 10 mg/kg (5-HT1A receptors; [4]) [%] | SMILES |
| --- | --- | --- | --- | --- |
| IA | 0.7 | – | – | COc1ccccc1N1CCN(CC[C@@H](c2ccccc2F)[C@H](NC(=S)N(C)C)C2CCCCC2)CC1 (single isomer, unassigned) [Example 24A, 3-{(1R,2S) or (1S,2R)-1-Cyclohexyl-2-(2-fluorophenyl)-4-[4-(2-methoxyphenyl)piperazin-1-yl]butyl}-1,1-dimethylthiourea] |
| IA | 0.68 | – | – | CON[C@H](C1CCCCC1)[C@@H](CCN1CCN(c2ccccc2OC)CC1)c1ccccc1F (racemic) [Example 4a, (RS,SR)-N-{1-Cyclohexyl-2-(2-fluorophenyl)-4-[4-(2-methoxyphenyl)piperazin-1-yl]butyl}-O-methylhydroxylamine] |
